In the supplement of paper PMC10307832:

Tests used:
Experiment in all cases: relative viability (nuclei count vs DMSO), 5 days (fraction); higher = more cells survive
[1] = compound: CCN(CCO)CCCC(C)Nc1ccnc2cc(Cl)ccc12 [Hydroxychloroquine] + CCNC(=O)c1noc(-c2cc(C(C)C)c(O)cc2O)c1-c1ccc(CN2CCOCC2)cc1 [Luminespib] (partner 0.01 µM)
Summary of the method: (§1)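 Lung cancer cell lines in 1536-well plates were dosed by pin tool the day after seeding, either with one drug alone or with a fixed anchor-drug dose plus five library-drug doses (not always all listed) in √10 steps. After 5 days, cells were fixed and their nuclei stained in one step (final 0.05% Triton X-100, 1% formaldehyde, 1 ug/ml Hoechst), then counted on 4× images. Relative viability is the nuclei count in treated wells divided by that in vehicle wells. Values are medians of duplicate plates.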

[2] = compound: CCN(CCO)CCCC(C)Nc1ccnc2cc(Cl)ccc12 [Hydroxychloroquine] + COc1cccc2cc(-c3nc([C@H]4CC[C@H](C(=O)O)CC4)n4ncnc(N)c34)[nH]c12 [OSI-027] (partner 0.5 µM)
Summary of the method: as §1

[3] = compound: CCN(CCO)CCCC(C)Nc1ccnc2cc(Cl)ccc12 [Hydroxychloroquine] + CS(=O)(=O)N1CCN(Cc2cc3nc(-c4cccc5[nH]ncc45)nc(N4CCOCC4)c3s2)CC1 [Pictilisib] (partner 1 µM)
Summary of the method: as §1

[4] = compound: CCN(CCO)CCCC(C)Nc1ccnc2cc(Cl)ccc12 [Hydroxychloroquine] + CC(=O)c1c(C)c2cnc(Nc3ccc(N4CCNCC4)cn3)nc2n(C2CCCC2)c1=O [Palbociclib] (partner 0.5 µM)
Summary of the method: as §1

| Cell Line | relative viability ([1]; first compound 0.5 µM) | relative viability ([1]; first compound 1.581 µM) | relative viability ([1]; first compound 15.81 µM) | relative viability ([1]; first compound 50 µM) | relative viability ([2]; first compound 0.5 µM) | relative viability ([2]; first compound 1.581 µM) | relative viability ([2]; first compound 5 µM) | relative viability ([2]; first compound 15.81 µM) | relative viability ([2]; first compound 50 µM) | relative viability ([3]; first compound 0.5 µM) | relative viability ([3]; first compound 5 µM) | relative viability ([3]; first compound 15.81 µM) | relative viability ([3]; first compound 50 µM) | relative viability ([4]; first compound 0.5 µM) | relative viability ([4]; first compound 1.581 µM) | relative viability ([4]; first compound 5 µM) | relative viability ([4]; first compound 15.81 µM) | relative viability ([4]; first compound 50 µM) | relative viability ([1]; first compound 5 µM) | relative viability ([3]; first compound 1.581 µM) |
| --- | --- | --- | --- | --- | --- | --- | --- | --- | --- | --- | --- | --- | --- | --- | --- | --- | --- | --- | --- | --- |
| LK-2 | 0.192 | 0.171 | 0.193 | 0.224 | 0.201 | 0.198 | 0.155 | 0.206 | 0.208 | 0.607 | 0.58 | 0.62 | 0.558 | 0.884 | 0.832 | 0.762 | 0.809 | 0.697 |  |  |
| NCI-H727 | 0.265 | 0.423 | 0.464 | 0.779 | 0.672 | 0.639 | 0.796 | 0.555 | 0.632 | 0.389 | 0.444 | 0.325 | 0.371 | 0.643 | 0.552 | 0.561 | 0.661 | 0.688 | 0.318 | 0.339 |
| HCC-366 |  |  |  |  | 0.896 | 0.932 | 0.673 | 0.862 | 1.05 | 0.202 | 0.198 | 0.18 | 0.148 | 0.324 | 0.406 | 0.366 | 0.381 | 0.665 |  | 0.13 |
| HOP-62 | 1 | 0.987 | 1.09 | 1 | 0.877 | 0.892 | 0.843 | 0.825 | 0.767 | 0.682 | 0.722 | 0.854 | 0.515 | 0.486 | 0.429 | 0.444 | 0.487 | 0.548 | 1.01 | 0.643 |
| NCI-H1944 | 0.772 | 0.676 | 0.866 | 0.831 | 0.445 | 0.33 | 0.418 | 0.337 | 0.453 | 0.309 | 0.326 | 0.325 | 0.382 | 0.301 | 0.314 | 0.319 | 0.29 | 0.346 | 0.64 | 0.293 |
| UMC-11 |  | 1.01 | 1.1 | 1.04 |  | 0.402 | 0.486 | 0.403 | 0.538 | 0.843 | 0.752 | 0.844 | 1.03 | 0.285 | 0.304 | 0.413 | 0.311 | 0.305 | 1.05 | 0.542 |
| LU99A | 0.279 | 0.248 | 0.226 | 0.268 | 0.304 | 0.258 | 0.327 | 0.283 | 0.329 | 0.367 | 0.337 | 0.28 | 0.362 | 0.356 | 0.383 | 0.377 | 0.444 | 0.473 | 0.265 | 0.288 |
| NCI-H650 | 0.884 | 0.818 | 0.881 | 0.795 | 0.566 | 0.557 | 0.61 | 0.555 | 0.545 | 0.867 |  | 1.01 | 0.827 | 0.341 | 0.288 | 0.3 | 0.35 | 0.311 | 0.78 | 0.758 |
| A-427 | 1.22 | 0.84 | 0.929 | 0.869 | 0.486 | 0.308 | 0.387 | 0.412 | 0.424 | 0.713 | 0.674 | 0.585 | 0.628 | 0.499 | 0.474 | 0.483 | 0.512 | 0.493 | 0.917 | 0.624 |
| COR-L 105 | 0.883 | 0.718 | 0.709 | 0.882 | 0.643 | 0.598 | 0.708 | 0.739 | 0.668 | 0.392 | 0.425 | 0.325 | 0.338 | 0.41 | 0.354 | 0.405 | 0.391 | 0.392 | 0.579 | 0.435 |
| NCI-H460 | 0.0311 | 0.0319 | 0.0324 | 0.0362 | 0.621 | 0.649 | 0.569 | 0.672 | 0.847 | 0.37 | 0.366 | 0.406 | 0.352 | 0.129 | 0.148 | 0.149 | 0.115 | 0.227 | 0.0298 | 0.266 |
| NCI-H2126 | 0.908 | 0.838 | 0.96 | 0.931 | 0.625 | 0.631 | 0.763 | 0.606 | 0.702 | 0.525 | 0.485 | 0.467 | 0.542 | 0.34 | 0.341 | 0.34 | 0.333 | 0.379 | 0.823 | 0.433 |
| EBC-1 |  |  |  |  |  |  |  |  |  | 0.367 | 0.374 | 0.354 | 0.295 |  |  |  |  |  |  | 0.307 |
| NCI-H1648 |  |  |  |  |  | 0.283 | 0.273 | 0.254 | 0.274 |  |  |  |  | 0.277 | 0.264 | 0.266 | 0.211 | 0.288 |  |  |
| SW 900 | 0.156 | 0.176 | 0.17 | 0.177 | 0.491 | 0.664 | 0.482 | 0.547 | 0.505 |  |  |  |  | 0.5 | 0.502 | 0.568 | 0.597 | 0.657 | 0.195 |  |
| NCI-H596 | 1.09 | 1.03 | 0.993 | 0.958 | 0.755 | 0.672 | 0.625 | 0.761 | 0.883 | 0.386 | 0.32 | 0.367 | 0.399 |  |  |  |  |  | 0.959 | 0.406 |
| NCI-H1563 | 0.521 | 0.579 | 0.567 | 0.496 | 0.736 | 0.625 | 0.79 | 0.794 | 0.716 | 0.694 | 0.574 | 0.627 | 0.596 |  |  |  |  |  | 0.488 | 0.605 |
| NCI-H1299 |  |  |  |  |  |  |  |  |  | 0.805 | 0.867 | 0.845 | 0.746 |  |  |  |  |  |  | 0.682 |
| NCI-H522 | 1.17 | 1.12 | 1.31 | 1.32 | 0.718 | 0.671 | 0.712 | 0.684 | 0.682 |  |  |  |  | 0.822 |  | 1.03 | 0.986 | 0.798 | 1.08 |  |
| A549 |  |  |  |  |  |  |  |  |  | 0.622 | 0.434 | 0.529 | 0.565 |  |  |  |  |  |  | 0.525 |
| IA-LM |  |  |  |  |  |  |  |  |  | 0.296 | 0.361 | 0.433 | 0.338 |  |  |  |  |  |  | 0.357 |
| Calu-6 |  |  |  |  |  |  |  |  |  | 0.997 | 0.949 | 0.962 | 0.986 |  |  |  |  |  |  | 0.785 |
